Experiments:
[1] = Viability (LC50) of MT4 cells; assay type: cell-based; settings: human, read-out: LC50 (concentration of compound at which 50% of the cells remain viable)
Text: (§1) The anti-HIV activity of the compounds of the invention can be determined in MT4 cells according to the procedure of Kempf, et. al. (Antimicrob. Agents Chemother. 1991, 35, 2209). The IC50 is the concentration of compound that gives 50% inhibition of the cytopathic effect of HIV. The LC50 is the concentration of compound at which 50% of the cells remain viable.

HIV-1 protease = molecular target: T1, HIV-1 protease (HIV-1 M:B_HXB2R, UniProt P04585); test: Fluorogenic Assay for Screening Inhibitors of HIV Protease; assay type: biochemical; settings: inhibitor concentration 0.5 nanomolar; pH 4.5; 30° C.; 1.3 μM fluorogenic substrate; read-out: Percent Inhibition
T1 construct: fluorogenic DABCYL/EDANS peptide substrate
Protocol: The inhibitory potency of the compounds of the invention can be determined by the following method.
A compound of the invention is dissolved in DMSO and a small aliquot further diluted with DMSO to 100 times the final concentration desired for testing. The reaction is carried out in a 6×50 mm tube in a total volume of 300 microliters. The final concentrations of the components in the reaction buffer are: 125 mM sodium acetate, 1 M sodium chloride, 5 mM dithiothreitol, 0.5 mg/ml bovine serum albumin, 1.3 μM fluorogenic substrate, 2% (v/v) dimethylsulfoxide, pH 4.5. After addition of inhibitor, the reaction mixture is placed in the fluorometer cell holder and incubated at 30° C. for several minutes. The reaction is initiated by the addition of a small aliquot of cold HIV protease. The fluorescence intensity (excitation 340 nm, emmision 490 nM) is recorded as a function of time. The reaction rate is determined for the first six to eight minutes. The observed rate is directly proportional to the moles of substrate cleaved per unit time. The percent inhibition is 100 X (1 -(rate in presence of inhibitor)/(rate in absence of inhibitor)).
Fluorogenic substrate: DabcyI-Ser-GIn-Asn-Tyr-Pro-Ile-VaI-GIn-EDANS wherein DABCYL=4-(4-dimethylamino-phenyl)azobenzoic acid and EDANS=5-((2-aminoethyl)amino)-naphthalene-1-sulfonic acid.

HIV-13B = test: Antiviral activity: inhibition of the cytopathic effect of HIV in MT4 cells; assay type: cell-based; settings: Human immunodeficiency virus 1; HIV-13B in MT4 cells; read-out: IC50 (concentration of compound that gives 50% inhibition of the cytopathic effect of HIV)
Text: as §1

inhibition at 0.0005 µM (HIV-1 protease): 61% | IC50 (HIV-13B): 16 nM
SMILES: CC(C)(C)NC(=O)[C@@H]1CN(Cc2cncs2)CCN1C[C@@H](O)C[C@@H](Cc1ccccc1)C(=O)N[C@H]1c2ccccc2C[C@H]1O [Example 1R, (1S,2R,2'R,4'S,2"S)-1-((2-Benzyl-5-(((2-(t-butyl)amino)carbonyl)-4-((thiazol-5-yl)methyl)piperazin-1-yl)-4-hydroxypentanoyl)amino)indan-2-ol]
CC50 [1]: > 100000 nM

Source: patent US5455351A, “Retroviral protease inhibiting piperazine compounds” (Abbott Laboratories, priority 1993, dated 1995)
